From ChEMBL document CHEMBL1201862, “PubChem BioAssay data set” (2004)
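Results reflect a 48-hour exposure of cells in 96-well plates to compound at five concentrations. Here, GI50 denotes the concentration required for 50% inhibition of growth.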 Activity calls are given as the source filed them. Cut-off read from the data, not from the text of the source: active = GI50 up to about 1.1 µM and inactive = higher.

Tests used:
Test in all cases: NCI-60 cell line screen, 48 h
[1] = system: EKVX
[2] = system: HOP-62
[3] = system: HT-29
[4] = system: K562
[5] = system: M14
[6] = system: MOLT-4
[7] = system: NCI-H460
[8] = system: NCI/ADR-RES
[9] = system: OVCAR-4
[10] = system: OVCAR-5
[11] = system: OVCAR-8
[12] = system: SF-295
[13] = system: SF-539
[14] = system: SK-MEL-2
[15] = system: SK-MEL-5
[16] = system: SR
[17] = system: T47D
[18] = system: HOP-92
[19] = system: SN12C

Measured: GI50

Fc1ccc(NCn2nc(COc3ccccc3Cl)n(/N=C/c3ccc(-c4ccc(Cl)cc4Cl)o3)c2=S)cc1Cl
inactive: [1] > 100 µM | [2] 52.4 µM | [3] > 100 µM | [4] 15.4 µM | [5] 28.5 µM | [6] 16.1 µM | [7] 32.7 µM | [8] 43.5 µM | [9] 53.2 µM | [10] > 100 µM | [11] 36.1 µM | [12] 33 µM | [13] 31.3 µM | [14] 25 µM | [15] 7.62 µM | [16] 16.6 µM | [17] 27.7 µM

COC(=O)[C@@H]1C=C[C@@H](C#N)n2c(=O)n(-c3ccccc3)c(=O)n21
inactive: [1] 35.5 µM | [2] 13.3 µM | [18] 45.4 µM | [3] 31.1 µM | [4] 37.9 µM | [5] 25.9 µM | [6] 34.7 µM | [8] 26.4 µM | [9] 36.3 µM | [10] 29.4 µM | [11] 23.3 µM | [12] 23.8 µM | [13] 20.8 µM | [15] 46.3 µM | [19] 26.2 µM | [16] 20.6 µM | [17] 24.2 µM

Cc1ccc2c(c1)SSSSS2
inactive: [1] 23.3 µM | [2] 20.2 µM | [18] 18.5 µM | [3] 28.1 µM | [4] 22.1 µM | [5] 21.3 µM | [6] 30.5 µM | [7] 18.4 µM | [8] 25.4 µM | [9] 18.3 µM | [10] 22.1 µM | [11] 21.9 µM | [12] 19.8 µM | [15] 19.1 µM | [19] 16.5 µM | [16] 40.3 µM | [17] 12.6 µM

O=C(O)c1cc(/N=N/c2ccc([As](=O)(O)O)cc2)ccc1O
inactive: [1] > 100 µM | [2] > 100 µM | [3] > 100 µM | [4] > 100 µM | [5] > 100 µM | [6] > 100 µM | [7] > 100 µM | [8] > 100 µM | [9] > 100 µM | [10] > 100 µM | [11] > 100 µM | [12] > 100 µM | [13] > 100 µM | [14] > 100 µM | [15] > 100 µM | [19] > 100 µM | [16] > 100 µM | [17] > 100 µM
